From patent US20200376011A1, “COMPOSITION FOR TREATING CANCER INCLUDING ALGINATE OLIGOSACCHARIDE AS AN ACTIVE INGREDIENT” (BIO3S, INC, priority 2019, published 2020)

System: infiltration of NK cells into ECM (collagen) toward cancer cells (A549)
Assay: NK cell infiltration in tumor microenvironment (TME) simulating organ-on-a-chip model
Type: cell-based
Conditions: co-treatment with NK cells and M5 versus NK cells alone; 48 hours; high-concentration collagen cell barrier model
Excerpt: The efficacy as a cancer adjuvant was examined by administering tumor microenvironment (TME) simulating models (organ-on-a-chips) with NK cells and the indicator component M5 for the active ingredient of the present disclosure.
NK cells, known to have anti-cancer efficacy as immune cells, were examined for a change in infiltration ability into tumor tissues according to whether or not NK cells were co-administered with M5. The qualification criterion was the infiltration ability of immune cells into ECM, which was determined by the infiltration distance of NK cells and whether or not the number of infiltrating cells was increased. Collagen was selected as a representative type of ECM. The cells were seeded into the chips under a […] collagen condition, and after 6 hours and 48 hours, the infiltration of NK cells toward the medium and cancer cell (A549) channels was observed.
A comparison was made for the infiltration ability of NK cells between the treatment with NK cells alone and the co-treatment with NK cells and M5, for 48 hours in high-concentration collagen cell barrier models.

penta-mannuronic acid sodium salt [M5]
infiltration ability of NK cells into cancer cells: enhanced
